Experiments:
[1] = test system: Mettl8 mRNA; assay: Real-time PCR of Mettl8 mRNA in ESCs / E14 cells treated with STAT3 inhibitors; assay type: cell-based, mouse; details: for Mettl8 mRNA expression (real-time PCR): E14 cells treated for 6 hr; for Mettl8 mRNA (real-time PCR): ESCs treated with 10 μM STAT3 inhibitor for 1 hr
Description: To investigated how STAT3 crosstalk with other potential pathways in pluripotency of embryonic stem cells (“ESCs”), inventors tried to identify factors that were regulated by STAT3 using mouse ESCs treated with STAT3 inhibitors STA-21 and STATTIC. Real-time PCR was performed to screen for changes when embryonic stem cells (ESCs) were treated with STAT3 inhibitor 10 μM STA-21 and STATTIC for 1 hr. RNAs were extracted with TRIZOL followed by reverse transcription. Total RNAs were extracted from E14 cells treated with STA-21 and STATTIC for 6 hr and analyzed by real-time PCR. […] The data are shown as the mean±SD from three independent experiments (*p<0.05). The cell lysates from treated E14 cells were also analyzed by Western blot. Consistent with the mRNA expression, the protein levels of Mettl8 were reduced with presence of STA-21 and STATTIC (FIG. 5J). The value of each band was calculated from three independent replicates and indicates the relative expression level after normalizing to the loading control Actin.

[2] = test system: Mettl8; assay: Western blot of Mettl8 protein in E14 cells treated with STAT3 inhibitors; assay type: cell-based, mouse
Description: Total RNAs were extracted from E14 cells treated with STA-21 and STATTIC for 6 hr and analyzed by real-time PCR. […] The data are shown as the mean±SD from three independent experiments (*p<0.05). The cell lysates from treated E14 cells were also analyzed by Western blot. Consistent with the mRNA expression, the protein levels of Mettl8 were reduced with presence of STA-21 and STATTIC (FIG. 5J). The value of each band was calculated from three independent replicates and indicates the relative expression level after normalizing to the loading control Actin.

[3] = test system: Mettl8; assay: Mettl8 expression after treatment with interstrand crosslinking agents; assay type: cell-based
[4] = test system: HCT116 cells; assay: Cell growth (colony formation) assay, crystal violet; assay type: cell-based, human; details: HCT116, 500 cells/well, 7 days, versus scramble shRNA / empty vector
Description: (§1) In the soft agar colony assay, HCT116 cells with Mettl8 wt or ΔSAM were seeded at 500 cells/well in 6-well plate in triplicate and after 2-week colonies grown up in soft agar was shown. Colonies with more than 50 cells were counted with Quantity One software. […] 7 days later, cells were fixed and stained with crystal violet. The images of plates were collected with ImageLab software.

[5] = test system: ATM; assay: Camptothecin treatment of HCT116 WT and METTL8 KO cells, ATM activation immunoblot; assay type: cell-based, human; details: 10 μM camptothecin 0-24 hr; Mettl8 knockout HCT116 cells compared with WT
Description: HCT116 WT and METTL8 KO cells were treated with 10 μM camptothecin for 0 h, 1 hr, 3 hr, 6 hr, 16 hr, and 24 hr. Equal amount of lysates were resolved on SDS-PAGE followed by immunoblotting with antibodies.

[6] = test system: Mettl8 protein; assay: Mettl8 protein level after cisplatin treatment (SDS-PAGE, immunoblotting); assay type: cell-based, human; details: 293T, HCT116 and HepG2 cells; cisplatin 0, 10, 30, 60, 100, 150 μM for 24 h
Description: To further study modulation of Mettl8 protein, 293T, HCT116, and HepG2 cells were treated with different dosage of cisplatin (0, 10, 30, 60, 100, and 150 μM) for 24 h before cell lysates were collected and subjected to SDS-PAGE followed by immunoblotting with Mettl8 and Hsp90 antibodies.

[7] = test system: HCT116 wildtype and Mettl8 knockout cells; assay: Cisplatin sensitivity MTS assay; assay type: cell-based, human; details: Mettl8 knockout versus wildtype HCT116 cells
Description: (§2) To further study the relationship between cisplatin and Mettl8, MTS and colony survival assays were performed. In the MTS assay, HCT116 wildtype and Mettl8 knockout cells were seed in 96 well at 1000 cell/well density and treated with different dose of cisplatin. In the colony survival assay, 500 cells per well of HCT116 control and Mettl8 knockout cells were seeded into 6-well plates in triplicate and subjected to different dosage of cisplatin treatment for 2 h.

[8] = test system: HCT116 control and Mettl8 knockout cells; assay: Cisplatin sensitivity colony survival assay; assay type: cell-based, human; details: Mettl8 knockout versus control HCT116 cells; cisplatin 2 h, grown a week
Description: as §2
Cells were grown in fresh media for a week and the survival cell colonies were fixed and stained with crystal violet. Colonies with more than 50 cells were counted. The result was presented in ±SEM of percentage of colonies survived compared to untreated samples. […] This effect is dependent on p53 for cisplatin induced apoptosis (data not shown). This difference in sensitivity could be exploited in clinical context that patients with functional p53 and low Mettl8 tumor may benefit more from cisplatin treatment instead of radiotherapy.

[9] = test system: pS/TQ motif on Mettl8; assay: Flag IP and pS/TQ immunoblot of Flag-Mettl8 in HCT116 stable cells; assay type: cell-based, human
Text: Since both ATM and p53 are tumor suppressors in response to DNA damage, inventors further explored the function of Mettl8 in DNA damage. […] Equal amount of lysates were subject to Flag immunoprecipitation (“IP”) with M-2 beads and washed extensively before being resolved on SDS-PAGE and followed by immunoblotting with an phosphorylation-specific antibody against pS/TQ motif (Cell signaling) and a Flag antibodu. The lysates were immunoblotted by anti-Flag, Actin, ATM pS1981, Chk2 pT68 and p53 p515 antibodies.
In this experiment, equal amount of lysate was immunopurified with M2 beads and probed for pS/TQ antibody, the lysate was checked for antibodies indicated in FIG. 7C.
Equal amounts of lysate were immunopurified with M2 beads and probed for pS/TQ antibody, the lysate was checked for antibodies indicated.

[10] = test system: ATM, KAP1, Chk2, p53; assay: ATM inhibitor pre-treatment of Mettl8 mutant or knockout cells before irradiation (immunoblot); assay type: cell-based; details: Mettl8 mutant or knockout cells pre-treated with ATM inhibitor before irradiation
[11] = test system: Mettl8; assay: STAT3 shRNA knockdown in E14 cells, Mettl8 mRNA and protein; assay type: cell-based, mouse; details: Luc shRNA as control
Description: Luc shRNA was used as control. Data in FIG. 5K are shown as the mean±SD from three independent experiments. The value of each band in FIG. 5L was calculated from three independent replicates and indicates the relative expression level after normalizing to the loading control Actin.

[12] = test system: Mettl8; assay: shRNA knockdown of Mettl8 in HCT116 (lentivirus, Western blotting); assay type: cell-based, human; details: HCT116, lentiviral pLKO1 shRNA, 72 h
Description: To study the functions of Mettl8, hairpin shRNA was ordered and cloned into pLKO1 vector by AgeI/EcoRI, with the following sequence:
The hairpin sequences in the shRNA were underlined. […]. Supernatant was harvested after 48 hours and cleared by filtration. Then viral solution was added to fresh HCT116 culture in the presence of 6 ug/ml polybrene. After 72 h, the cells were lysed and equal amount of lysate was resolved on SDS-PAGE for knock down efficiency by Western blotting with anti-Mettl8 and actin antibodies as indicated in FIG. 2.

[13] = 3H-SAM binding assay with GST-Mettl8 proteins on beads, scintillation counting; design: species or system human; details: recombinant purified GST-Mettl8 wt and SAM mutant
Description: To test the ability of Mettl8 to bind SAM, equal amounts of GST, GST-Mettl8 WT and mutant proteins were conjugated on Glutathione sepharose 4B beads and incubated with ^3H-SAM for 30 min at 30° C. with empty beads control. After extensive washing, the beads were transferred to scintillation tubes and measured on liquid scintillation counter in triplicate.
(§3) As ATM is essential for cell checkpoint, the cell cycle profiles were studies in this experiment. The plasmid containing the cDNA of human Mettle8 SAM deletion mutant was constructed by PCR based mutagenesis method to delete the specific nucleotide sequence in the SAM domain as shown in FIG. 7A. After the plasmid was transfected into HCT116 wildtype cells, stable colonies of cell containing the plasmid were selected, which were called Mettl8 ΔSAM cells. The Mettle8 ΔSAM variant cDNA was also transduced into human skin fibroblast as shown in FIG. 7N by a lentivirus based method. These HCT116 stable cells were examined in cell cycle analysis (FIG. 9A) and soft agar colony assay (FIG. 9B).

[14] = test system: HCT116 stable cells; assay: Cell cycle profiling by FACS of HCT116 stable cells; assay type: cell-based, human; details: un-stressed conditions, versus empty vector and wild-type Mettl8
Text: as §3
In addition, HCT116 stable cells with Mettl8 variant were fixed with 70% ethanol and stained with pI followed by cell cycle profiling on FACS and data were analysed with FlowJo software.

[15] = test system: HCT116 cells; assay: Soft agar colony assay; assay type: cell-based, human; details: HCT116 stable cells, 500 cells/well, 2 weeks, compared to empty vector
Description: as §1

Q: What does the source list for O=[N+]([O-])c1ccc2c(c1)S(=O)(=O)C=C2 [STATTIC, 6-Nitrobenzo[b]thiophene 1,1-dioxide]?
A: Mettl8 mRNA expression (real-time PCR) [1]: inhibited; Mettl8 mRNA (real-time PCR) [1]: downregulated; Mettl8 protein levels (Western blot) [2]: reduced

Q: For CC1CC(=O)c2c(ccc3c2C(=O)c2cccc(O)c2C3=O)C1 (stereo not shown) [STA-21, 8-hydroxy-3-methyl-3,4-dihydrotetraphene-1,7,12(2H)-trione], which “Mettl8 mRNA expression (real-time PCR)” value [1] is on record?
A: inhibited

Q: And the “Mettl8 mRNA (real-time PCR)” value [1]?
A: downregulated

Q: And the “Mettl8 protein levels (Western blot)” value [2]?
A: reduced

Q: With CO[C@@]12[C@H](COC(N)=O)C3=C(C(=O)C(C)=C(N)C3=O)N1C[C@@H]1N[C@@H]12 [mitomycin C] as the molecule, how does the “Mettl8 expression at transcriptional level” value [3] read?
A: downregulated at transcriptional level

Q: For “Mettl8 shRNA2: shRNA sequence GCGAGAGAATCATCATGGGAT, SEQ ID No: 3”, which colony formation [4] is on record?
A: significantly reduced the colony formation

Q: With CC[C@@]1(O)C(=O)OCc2c1cc1n(c2=O)Cc2cc3ccccc3nc2-1 [camptothecin] as the molecule, how does the ATM activation [5] read?
A: caused hyperactivation of ATM

Q: What does the source list for N.N.[Cl][Pt][Cl] [cisplatin]?
A: Mettl8 protein level [6]: dramatically reduced; Mettl8 expression at transcriptional level [3]: downregulated at transcriptional level; sensitivity to cisplatin treatment (MTS assay) [7]: more sensitive; sensitivity to cisplatin treatment (colony survival assay) [8]: more sensitive

Q: Which results are given for O=c1cc(-c2cccc3c2Sc2ccccc2S3)oc(N2CCOCC2)c1 [Ku55933]?
A: prevention of Mettl8 phosphorylation by IR ([9]; 1 μM Ku55933 pretreatment 1 hour, 10 Gy, harvested 1 h later, doses 0.1, 1, 5 μM tested): sufficient to prevent the phosphorylation of Mettl8; irradiation-induced phosphorylation at the pS/TQ motif of Flag-Mettl8 ([9]; HCT116 Flag-Mettl8 cells pretreated 1 hour with inhibitor (AZD7762 0.5 μM), then 10 Gy): reduced the phosphorylation; hyper activation of ATM, KAP1, Chk2, p53 by irradiation [10]: either reverted or eliminated the hyper activation

Q: Which results are given for “STAT3 shRNA: shRNA sequence TTTGTGCTTAGGATGGCCC, SEQ ID No: 7; full sequence SEQ ID No: 8 (GATCCCCGGGCCATCCTAAGCACAAATTCAAGAGATTTGTGCTTAGGATGGCCCTTTTTA)”?
A: Mettl8 mRNA [11]: downregulation; Mettl8 protein [11]: downregulation

Q: For “shRNA: hairpin shRNA against Mettl8 cloned into pLKO1, SEQ ID NO: 15; hairpin matches M8 shRNA1 GTTGAGGGAATTTCCTGAAAT (CCGGGTTGAGGGAATTTCCTGAAATCTCGAGATTTCAGGAAATTCCCTCAACTTTTTTG)”, which “Mettl8 expression (knock down efficiency, Western blotting)” value [12] is on record?
A: can knock down the expression of Mettl8

B1: Mettl8 ASAM variant: human Mettl8 variant with SAM domain deletion (aa 200-208), SEQ ID No. 18; competes with endogenous Mettl8 (protein)
chain: MNMIWRNSISCLRLGKVPHRYQSGYHPVAPLGSRILTDPAKVFEHNMWDHMQWSKEEEAAARKKVKENSAVRVLLEEQVKYEREASKYWDTFYKIHKNKFFKDRNWLLREFPEILPVDQKPEEKARESSWDHVKTSATNRFSRMHCPTVPDEKNHYEKSSGSSEGQSKTESDFSNLDSEKHKKGPMETGLFPGSNATFRNSVFPILNTLENSPESFLYCCDFASGAVELVKSHSSYRATQCFAFVHDVCDDGLPYPFPDGILDVILLVFVLSSIHPDRMQGVVNRLSKLLKPGGMLLFRDYGRYDKTQLRFKKGHCLSENFYVRGDGTRAYFFTKGEVHSMFCKASLDEKQNLVDRRLQVNRKKQVKMHRVWIQGKFQKPLHQTQNSSNMVSTLLSQD
Q: Which “binding of SAM” value [13] does the source give for B1 here?
A: lost the ability to bind the SAM donor molecule

Q: What about the cell cycle profile [14] of the same molecule?
A: more accumulation of G2/M populations

Q: What about the “soft agar colony numbers” value [15] of the same molecule?
A: much reduced colony numbers

Source: US11642362B2, “Methods of inhibiting cell proliferation and METTL8 activity” (NATIONAL UNIVERSITY OF SINGAPORE, priority 2017, dated 2023)
